Results from ChEMBL document CHEMBL1201862, “PubChem BioAssay data set” (2004).
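Compound exposure: 48 hours, 5 concentrations, 96-well plates. GI50 marks 50% less growth.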 Active and inactive are the calls of the source. Rule as the data show it: active = GI50 up to about 1.1 µM and inactive = higher.

Legend:
Test in all cases: NCI-60 cell line screen, 48 h
A549 = tested on: A549
ACHN = tested on: ACHN
DU-145 = tested on: DU-145
EKVX = tested on: EKVX
HL-60 = tested on: HL-60
HOP-62 = tested on: HOP-62
LOX IMVI = tested on: LOX IMVI
MDA-MB-231 = tested on: MDA-MB-231
MOLT-4 = tested on: MOLT-4
NCI/ADR-RES = tested on: NCI/ADR-RES
OVCAR-3 = tested on: OVCAR-3
OVCAR-5 = tested on: OVCAR-5
OVCAR-8 = tested on: OVCAR-8
RPMI-8226 = tested on: RPMI-8226
SF-539 = tested on: SF-539
SK-OV-3 = tested on: SK-OV-3
SN12C = tested on: SN12C
SNB-19 = tested on: SNB-19
UACC-62 = tested on: UACC-62
MDA-MB-435 = tested on: MDA-MB-435

Compound | GI50 (A549) | GI50 (ACHN) | GI50 (DU-145) | GI50 (EKVX) | GI50 (HL-60) | GI50 (HOP-62) | GI50 (LOX IMVI) | GI50 (MDA-MB-231) | GI50 (MOLT-4) | GI50 (NCI/ADR-RES) | GI50 (OVCAR-3) | GI50 (OVCAR-5) | GI50 (OVCAR-8) | GI50 (RPMI-8226) | GI50 (SF-539) | GI50 (SK-OV-3) | GI50 (SN12C) | GI50 (SNB-19) | GI50 (UACC-62) | GI50 (MDA-MB-435)
CNC(=O)N1CN(c2ccccc2)C2(CCN(CCCC(=O)c3ccc(F)cc3)CC2)C1=O | 45.1 µM (inactive) | 11.1 µM (inactive) | 11.3 µM (inactive) | 12.8 µM (inactive) | 15.2 µM (inactive) | 8.22 µM (inactive) | 17.1 µM (inactive) | 25.2 µM (inactive) | 4.57 µM (inactive) | 17.6 µM (inactive) | 18.4 µM (inactive) | 11.7 µM (inactive) | 31.5 µM (inactive) | 14.1 µM (inactive) | 13.9 µM (inactive) | 31.8 µM (inactive) | 21.4 µM (inactive) | 17.3 µM (inactive) | 18.7 µM (inactive) | 
Cc1cccc2sc(NC(=O)NS(=O)(=O)n3cnc4ccccc43)nc12 | 37.5 µM (inactive) | 32.8 µM (inactive) | 32.8 µM (inactive) | 1.67 µM (inactive) | 31.5 µM (inactive) | 34.7 µM (inactive) |  | 27 µM (inactive) | 26.5 µM (inactive) | 27.4 µM (inactive) | 22.3 µM (inactive) | 25.9 µM (inactive) | 22.5 µM (inactive) | 21.5 µM (inactive) | 24 µM (inactive) | 38.3 µM (inactive) | 25.9 µM (inactive) | 38 µM (inactive) | 18.3 µM (inactive) | 27.9 µM (inactive)
O=c1c(=O)c2c(Br)sc(Br)c2c1=O | > 100 µM (inactive) | 20.6 µM (inactive) | > 100 µM (inactive) | 20.1 µM (inactive) |  | 30.2 µM (inactive) | 19.7 µM (inactive) |  | 24.3 µM (inactive) | 32.7 µM (inactive) | 18.5 µM (inactive) | 20.3 µM (inactive) | 18.3 µM (inactive) | 21.6 µM (inactive) | 19.5 µM (inactive) | 43.8 µM (inactive) | 17.3 µM (inactive) | 70.6 µM (inactive) | 20.1 µM (inactive) | 19.1 µM (inactive)
O=C(O)c1ccccc1/C=N/N=C1NCCCCN1 | > 100 µM (inactive) | > 100 µM (inactive) |  | > 100 µM (inactive) | > 100 µM (inactive) | > 100 µM (inactive) | > 100 µM (inactive) | > 100 µM (inactive) | > 100 µM (inactive) | > 100 µM (inactive) | > 100 µM (inactive) | > 100 µM (inactive) | > 100 µM (inactive) | > 100 µM (inactive) | > 100 µM (inactive) | > 100 µM (inactive) |  | > 100 µM (inactive) | > 100 µM (inactive) | > 100 µM (inactive)
C1COC2SC3=C(SC(=C4SC5=C(SCCS5)S4)S3)SC2O1 (configuration not stated) | > 100 µM (inactive) | > 100 µM (inactive) | > 100 µM (inactive) | > 100 µM (inactive) | 33.9 µM (inactive) | > 100 µM (inactive) |  | > 100 µM (inactive) | > 100 µM (inactive) | > 100 µM (inactive) | > 100 µM (inactive) | > 100 µM (inactive) | > 100 µM (inactive) |  | 44 µM (inactive) | 72.3 µM (inactive) | > 100 µM (inactive) | > 100 µM (inactive) | 22 µM (inactive) | 4.07 µM (inactive)
O=C(O)c1cc(O)c2c(c1)Cc1cccc(O)c1C2=O | 31.4 µM (inactive) | 15.4 µM (inactive) | 36.5 µM (inactive) | 22.1 µM (inactive) | 21.1 µM (inactive) | 19.1 µM (inactive) |  | 21.5 µM (inactive) | 22.7 µM (inactive) | 24.9 µM (inactive) | 17.9 µM (inactive) | 29.9 µM (inactive) | 21.3 µM (inactive) | 21.9 µM (inactive) |  | 30.5 µM (inactive) | 16.6 µM (inactive) | 28.6 µM (inactive) | 19.1 µM (inactive) | 33.6 µM (inactive)
O=C(COc1ccc(Cl)cc1Cl)N/N=C/C=C/c1ccc([N+](=O)[O-])o1 | 8.24 µM (inactive) | 4.63 µM (inactive) |  | 17.5 µM (inactive) | 3.76 µM (inactive) | 15.1 µM (inactive) | 3.27 µM (inactive) | 6.95 µM (inactive) | 2.28 µM (inactive) | 11.9 µM (inactive) | 4.59 µM (inactive) | > 100 µM (inactive) | 3.44 µM (inactive) | 2.26 µM (inactive) | 7.31 µM (inactive) | 14.6 µM (inactive) | 8.47 µM (inactive) | 9.48 µM (inactive) | 3.82 µM (inactive) | 2.63 µM (inactive)
COC(=O)C1Cc2c([nH]c3ccccc23)-c2[nH]c3ccccc3c2CC(NC(C)=O)C(=O)N2CCCC2C(=O)N1 (configuration not stated) | > 100 µM (inactive) | > 100 µM (inactive) | > 100 µM (inactive) | > 100 µM (inactive) |  | > 100 µM (inactive) | > 100 µM (inactive) | > 100 µM (inactive) | 66.7 µM (inactive) | > 100 µM (inactive) | > 100 µM (inactive) | > 100 µM (inactive) | > 100 µM (inactive) | 56.8 µM (inactive) | > 100 µM (inactive) | > 100 µM (inactive) | > 100 µM (inactive) | > 100 µM (inactive) | > 100 µM (inactive) | > 100 µM (inactive)
CC(CO)[C@H]1OC(=O)C=C2[C@@]13O[C@@H]3[C@H]1OC(=O)[C@@]3(C)[C@H]4O[C@H]4C[C@@]2(C)[C@@H]13 (some centres not stated) | 1.87 µM (inactive) | 0.843 µM (active) | 1.39 µM (inactive) | 2.64 µM (inactive) | 0.343 µM (active) | 2.94 µM (inactive) | 0.249 µM (active) | 2.51 µM (inactive) | 0.488 µM (active) |  | 2.17 µM (inactive) | 3.78 µM (inactive) | 2.25 µM (inactive) | 2.22 µM (inactive) | 1.83 µM (inactive) | 3.02 µM (inactive) | 1.92 µM (inactive) | 1.47 µM (inactive) | 1.16 µM (inactive) | 1.55 µM (inactive)
CCN1CCC(C)OP1(=O)Cc1ccccc1 (configuration not stated) | > 100 µM (inactive) | > 100 µM (inactive) | > 100 µM (inactive) | > 100 µM (inactive) |  | > 100 µM (inactive) | > 100 µM (inactive) | > 100 µM (inactive) |  | > 100 µM (inactive) | 46.5 µM (inactive) | > 100 µM (inactive) | > 100 µM (inactive) | > 100 µM (inactive) | > 100 µM (inactive) | > 100 µM (inactive) |  | > 100 µM (inactive) | > 100 µM (inactive) | > 100 µM (inactive)
COc1ccc2c(c1)CC[C@@H]1[C@@H]2CC[C@]2(C)C(=O)/C(=C/c3ccc(N(C)C)cc3)C[C@@H]12 | 41.9 µM (inactive) | 48.9 µM (inactive) | > 100 µM (inactive) | 63.5 µM (inactive) | > 100 µM (inactive) | 20.8 µM (inactive) |  | 55.8 µM (inactive) | > 100 µM (inactive) | 33 µM (inactive) | 23 µM (inactive) | > 100 µM (inactive) |  | > 100 µM (inactive) | > 100 µM (inactive) | 53.7 µM (inactive) |  | 35.6 µM (inactive) | 32.6 µM (inactive) | > 100 µM (inactive)
C[C@]12CC[C@@H]3c4ccc(O)cc4CC[C@H]3[C@@H]1C/C(=C\c1ccc([N+](=O)[O-])cc1)C2=O | 57.9 µM (inactive) | 61.4 µM (inactive) | 50 µM (inactive) | 52.6 µM (inactive) |  | 33.7 µM (inactive) | 36.6 µM (inactive) | 67.6 µM (inactive) | > 100 µM (inactive) | 59.2 µM (inactive) | 74 µM (inactive) | > 100 µM (inactive) | 34.9 µM (inactive) | > 100 µM (inactive) | 29.9 µM (inactive) | > 100 µM (inactive) | > 100 µM (inactive) | > 100 µM (inactive) | 37.8 µM (inactive) | 37.8 µM (inactive)
CC(=O)O[C@H]1C[C@@H](OC(C)=O)[C@@](C)(O)[C@@H]2[C@@H](OC(C)=O)[C@@]3(O)[C@H](/C=C(/CO)[C@H]4O[C@H]4[C@@H](OC(C)=O)[C@@]12C)OC(=O)[C@@H]3C | 10.4 µM (inactive) | 16.3 µM (inactive) | 5.27 µM (inactive) | > 25 µM (inactive) |  | 7.26 µM (inactive) | 8.71 µM (inactive) | 7.06 µM (inactive) | 16.4 µM (inactive) | > 25 µM (inactive) | 5.51 µM (inactive) | > 25 µM (inactive) | 12.7 µM (inactive) | 9.86 µM (inactive) |  | 11.9 µM (inactive) | 12.2 µM (inactive) | > 25 µM (inactive) | 7.64 µM (inactive) | 5.42 µM (inactive)
O=C(c1ccccc1)c1ccc(COc2ccc(C(c3c(O)c4ccccc4oc3=O)c3c(O)c4ccccc4oc3=O)cc2)cc1 | 26.2 µM (inactive) | 19.3 µM (inactive) | 59.8 µM (inactive) | 19.8 µM (inactive) |  | 20.5 µM (inactive) | 23.9 µM (inactive) | 34.3 µM (inactive) | 18.7 µM (inactive) | 19.5 µM (inactive) | 18.9 µM (inactive) | 18.9 µM (inactive) | 17.2 µM (inactive) | 12.5 µM (inactive) | 23.9 µM (inactive) | 19.2 µM (inactive) | 43.8 µM (inactive) | 23.4 µM (inactive) | 14 µM (inactive) | 20.2 µM (inactive)
